Experimental findings from US11639446B2, “Cationic electrodeposition coating composition” (KANSAI PAINT CO., LTD., priority 2017, dated 2023) are described below.

The nature of this data set: Water solubility of catalyst.
In the case of `Cn1cc[n+](C)c1/C([O-])=N\c1ccccc1` [modified imidazole C], the “Water solubility of catalyst” value is given as “Insoluble”.

For `CCCCCCCCn1cc[n+](CCCCCCCC)c1/C([O-])=N\c1ccccc1` [modified imidazole F], the “Water solubility of catalyst” value is “Insoluble”. `Cn1cc[n+](C)c1.[Cl-]` [reference compound]: the “Water solubility of catalyst” value is recorded as “Soluble”. For the compound `Cn1cc[n+](C)c1C(=O)[O-]` [modified imidazole A, 1,3-dimethylimidazolium-2-carboxylate], the “Water solubility of catalyst” value is given as “Soluble”. With `CCCCCCC[CH2][Sn](=[O])[CH2]CCCCCCC` [Dioctyltin oxide, reference compound], the “Water solubility of catalyst” value is on record as “Insoluble”. `CCCC[n+]1ccn(C)c1C(=O)[O-]` [modified imidazole B]: the “Water solubility of catalyst” value is reported as “Soluble”. On to `CCCCCCCC[n+]1ccn(C)c1/C([O-])=N\c1ccccc1` [modified imidazole E], for which the “Water solubility of catalyst” value is “Insoluble”.
